The text below walks through data of patent US10369166B2 (priority 2014, dated 2019).

Values joined by “and” are separate entries in the source; they are usually repeats but may differ in a detail not shown here. Equal values may be shown once. Read-outs that look alike come from different tables or passages of the source.

One series deals with Ebola virus. The conditions noted are these: in vivo.
For series [1] the following is noted: in vivo; cited from earlier work.
For the next series, the system named is COLLAGEN
The settings on record: cited from earlier work.

The conditions of series [2]: in vivo.
Series [3] has as its target T1, (CAT B) CATHEPSIN B (Homo sapiens, UniProt P07858). The settings on record: cited from earlier work.
Series [4] concerns the target T1, (CAT B) CATHEPSIN B. The format is biochemical.
The conditions of series [5]: mouse, in vivo; cited from earlier work.
In another series the test system is Ebolavirus Sudan Gulu. The format is cell-based.
The target of another series is TNF ALPHA (Homo sapiens, UniProt P01375). The settings on record: cited from earlier work.
For series [6] the following is noted: in vivo, cited from earlier work.
In the next series the target is S-ADENOSYL HO[…] (SAHH) (Homo sapiens, UniProt P23526). The conditions noted are these: cited from earlier work.
For series [7], the system named is G9a/GLP-mediated dimethylation of histone 3 on lysine 9. The settings on record: cited from earlier work.
The next series concerns MCF7 cells. The settings on record: cited from earlier work.
The next series has as its target T2, GLP (Homo sapiens, UniProt Q9H9B1).
T2 sequence (Q9H9B1 1-1298): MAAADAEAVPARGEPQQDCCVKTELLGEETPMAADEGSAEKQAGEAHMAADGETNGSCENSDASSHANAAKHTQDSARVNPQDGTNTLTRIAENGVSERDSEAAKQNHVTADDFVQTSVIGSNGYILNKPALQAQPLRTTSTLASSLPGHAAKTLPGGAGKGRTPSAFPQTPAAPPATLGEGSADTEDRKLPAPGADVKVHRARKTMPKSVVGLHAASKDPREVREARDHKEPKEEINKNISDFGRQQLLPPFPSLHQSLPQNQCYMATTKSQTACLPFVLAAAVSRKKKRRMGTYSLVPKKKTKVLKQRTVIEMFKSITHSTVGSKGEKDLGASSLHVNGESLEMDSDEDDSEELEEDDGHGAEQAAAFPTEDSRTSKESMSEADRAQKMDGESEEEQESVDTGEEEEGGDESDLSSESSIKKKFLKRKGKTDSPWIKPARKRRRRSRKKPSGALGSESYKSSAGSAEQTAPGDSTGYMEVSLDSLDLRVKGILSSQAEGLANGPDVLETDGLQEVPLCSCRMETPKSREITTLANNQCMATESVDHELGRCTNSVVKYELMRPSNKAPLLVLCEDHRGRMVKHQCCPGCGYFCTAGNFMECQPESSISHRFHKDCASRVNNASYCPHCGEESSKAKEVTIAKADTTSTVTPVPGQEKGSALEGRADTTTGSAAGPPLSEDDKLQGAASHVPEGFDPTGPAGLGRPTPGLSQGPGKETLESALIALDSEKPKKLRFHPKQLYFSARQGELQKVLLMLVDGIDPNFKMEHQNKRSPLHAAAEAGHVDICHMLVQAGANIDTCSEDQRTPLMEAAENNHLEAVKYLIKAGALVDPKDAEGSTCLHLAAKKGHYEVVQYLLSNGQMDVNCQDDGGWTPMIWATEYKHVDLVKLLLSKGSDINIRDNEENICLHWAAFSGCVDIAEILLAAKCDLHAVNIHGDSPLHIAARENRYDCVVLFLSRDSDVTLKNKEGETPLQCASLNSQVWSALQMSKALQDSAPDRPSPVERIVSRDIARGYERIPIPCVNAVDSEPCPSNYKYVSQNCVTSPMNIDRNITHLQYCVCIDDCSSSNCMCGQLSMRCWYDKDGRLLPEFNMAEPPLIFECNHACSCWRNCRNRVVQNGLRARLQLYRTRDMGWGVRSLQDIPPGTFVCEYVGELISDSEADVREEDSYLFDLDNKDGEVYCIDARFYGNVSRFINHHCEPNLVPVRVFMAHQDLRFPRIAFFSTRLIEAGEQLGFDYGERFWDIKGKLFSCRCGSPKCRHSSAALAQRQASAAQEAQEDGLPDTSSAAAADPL
The conditions noted are these: cited from earlier work.

The next series relates to folate. The settings on record: cited from earlier work.

Chain of TNF ALPHA (P01375 whole entry, species assumed): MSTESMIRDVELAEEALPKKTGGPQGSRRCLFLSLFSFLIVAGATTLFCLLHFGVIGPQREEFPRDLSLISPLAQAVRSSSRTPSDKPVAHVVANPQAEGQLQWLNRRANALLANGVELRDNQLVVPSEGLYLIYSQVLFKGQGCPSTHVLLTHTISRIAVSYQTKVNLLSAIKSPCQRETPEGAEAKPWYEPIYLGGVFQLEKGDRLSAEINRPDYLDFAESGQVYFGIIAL
Chain of S-ADENOSYL HO[…] (SAHH) (P23526 whole entry, species assumed): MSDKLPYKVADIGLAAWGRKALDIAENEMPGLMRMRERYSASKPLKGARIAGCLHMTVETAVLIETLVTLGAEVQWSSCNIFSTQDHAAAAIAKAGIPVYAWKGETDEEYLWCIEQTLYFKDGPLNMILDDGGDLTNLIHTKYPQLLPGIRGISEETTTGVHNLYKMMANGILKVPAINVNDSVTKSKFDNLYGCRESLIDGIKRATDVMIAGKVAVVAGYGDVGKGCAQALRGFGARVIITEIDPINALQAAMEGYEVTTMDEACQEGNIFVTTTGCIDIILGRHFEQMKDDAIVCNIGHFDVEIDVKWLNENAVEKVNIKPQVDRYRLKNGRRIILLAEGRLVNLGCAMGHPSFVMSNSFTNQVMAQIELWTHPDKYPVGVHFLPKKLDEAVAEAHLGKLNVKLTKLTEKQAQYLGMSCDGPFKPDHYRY

For the compound `Nc1nccc2c1ncn2[C@@H]1C=C(CO)[C@@H](O)[C@H]1O` [3-DEAZANEPLANOCIN A], in the series with Ebola virus, the “Residual estimated viral load” value was 10^5 pfu/ml and 10^7 pfu/ml and 10^8 pfu/ml.

With `Nc1ncnc2c1ncn2[C@@H]1O[C@H](COP(=O)(O)O)[C@@H](O)[C@H]1O` [ADENOSINE MONOPHOSPHATE], the LD50 in series [1] was 2900 mg/kg. Regarding `N=C(N)NCCC[C@H](N)C(=O)O` [Arginine], the ED50 with COLLAGEN is recorded as 2.5 g. On to `COc1ccc2cc3[n+](cc2c1OC)CCc1cc2c(cc1-3)OCO2` [BERBERINE], for which, in the series with Ebola virus, the “residual viral load after the product (sequential)” value (“residual viral load” for short) came to 235 pfu/ml. Also, the LD50 in series [2] was found to be 2072 g. Moreover, the 50% inhibitory concentration (IC50) (commonly the point on the concentration scale where inhibition reaches its midpoint) on (CAT B) CATHEPSIN B [3] was 550 µM. At (CAT B) CATHEPSIN B [4], this compound showed an ED50 of 0.185 g/day. Also, the “Oral LD50” value in series [5] was “(mouse): >29,586 mg/kg”.

Regarding `CC1(C)CC[C@]2(C(=O)O)CC[C@]3(C)C(=CC[C@@H]4[C@@]5(C)CC[C@H](O)C(C)(C)[C@@H]5CC[C@]43C)[C@@H]2C1` [BETA-OLEANOLIC ACID], the “residual viral load” value with Ebola virus was found to be 1875 pfu/ml. For the same compound, at (CAT B) CATHEPSIN B [3], the IC50 is 9 µM. Also, the ED50 on (CAT B) CATHEPSIN B [4] came out at 0.004 g.

Regarding `C[C@H]1[C@H](C)CC[C@]2(C(=O)O)CC[C@]3(C)C(=CC[C@@H]4[C@@]5(C)CC[C@H](O)C(C)(C)[C@@H]5CC[C@]43C)[C@H]12` [BETA-URSOLIC ACID], the “residual viral load” value in the series with Ebola virus stood at 12500 pfu/ml. Moreover, the IC50 on (CAT B) CATHEPSIN B [3] was 10 µM.

Turning to `Nc1nccc2c1ncn2[C@@H]1O[C@H](CO)[C@@H](O)[C@H]1O` [CA-C3-ADO, 3-deaza-adenosine], the “Molarity at last dilution” value in the series with Ebolavirus Sudan Gulu turned out to be 200 µM.

As to `COc1cc(/C=C/C(=O)CC(=O)/C=C/c2ccc(O)c(OC)c2)ccc1O` [CURCUMIN], in the series with Ebola virus, the “residual viral load” value worked out at 25000 pfu/ml. For the same compound, the ED50 at TNF ALPHA was 29 to 60 mg/kg.

For `CC(C)N(CCCNC(=O)Nc1ccc(C(C)(C)C)cc1)C[C@H]1O[C@@H](n2ccc3c(N)ncnc32)[C@H](O)[C@@H]1O` [EPZ004777], in series [6], the “Rat LD50” value is on record as 590 mg/kg. Regarding `CC(C)N(C[C@H]1O[C@@H](n2cnc3c(N)ncnc32)[C@H](O)[C@@H]1O)C1CC(CCc2nc3ccc(C(C)(C)C)cc3[nH]2)C1` (stereo partly drawn) [EPZ-5676], the “Molarity at last dilution” value in the series on Ebolavirus Sudan Gulu turned out to be 0.4 µM. Take `N[C@@H](CCS)C(=O)O` [HOMOCYSTEINE]: the ED50 in the series on E[…] came out at 0.4725 g. On to `OC[C@H]1O[C@@H](n2cnc3c(O)ncnc32)[C@H](O)[C@@H]1O` [INOSINE], for which the ED50 at S-ADENOSYL HO[…] (SAHH) is 29 to 60 mg/kg. Turning to `O=c1c(O)c(-c2ccc(O)cc2)oc2cc(O)cc(O)c12` [Kaemferol], in series [1], the LD50 is 2170 mg/kg. For `COc1c(C)c2c(c(O)c1C/C=C(\C)CCC(=O)O)C(=O)OC2` [Mycophenolic acid], the “Residual estimated viral load” value in the series with Ebola virus was 2 × 10^6 pfu/ml. Turning to `CCCCN1C[C@H](O)[C@@H](O)[C@H](O)[C@H]1CO` [N-B-DEOXYNOJIRIMYCIN], the “Residual estimated viral load” value with Ebola virus is on record as 10^7 pfu/ml. Moreover, the ED50 in the series with α-glucosidase is reported as 32.85 mg. Also, in [6] (rat, po), the LD50 entry is reported as “LD50 1,300 mg mg kg-1”.

Turning to `NCCC[C@H](N)C(=O)O` [Ornithine], the ED50 in the series with COLLAGEN is 3.5 g. As for `O=c1c(O)c(-c2ccc(O)c(O)c2)oc2cc(O)cc(O)c12` [QUERCETIN], the “residual viral load” value in the series on Ebola virus is 469 pfu/ml. For the same compound, in series [2], the LD50 stood at 11.27 g. Besides, the “Oral LD50” value in series [6] (rat, po) is recorded as “(rat): 161 mg/kg”. Moreover, at (CAT B) CATHEPSIN B [3], the IC50 is 11 µM. Moreover, the ED50 at (CAT B) CATHEPSIN B [4] came out at 0.03 g. Regarding `CC(C)N(CCCNC(=O)Nc1ccc(C(C)(C)C)cc1)C[C@H]1O[C@@H](n2cc(Br)c3c(N)ncnc32)[C@H](O)[C@@H]1O` [SGC 0946], in series [2], the LD50 was determined as 41.3 g. Moreover, in series [6], the “Rat LD50” value is 590 mg/kg. In the case of `COc1cc2c(NC3CCN(CC4CCCCC4)CC3)nc(N3CCCN(C(C)C)CC3)nc2cc1OCCCN1CCCCC1` [UNC0631], in series [7], the IC50 was 0.004 µM. Also, the LD50 in series [1] is listed as 2 mg/kg. Regarding `COc1cc2c(NC3CCN(C4CCCCC4)CC3)nc(N3CCCN(C(C)C)CC3)nc2cc1OCCCN1CCCCC1` [UNC0646], the concentration giving a half-maximal response (EC50) (as a rule, the concentration needed to bring the measured effect to its halfway point) in the series on MCF7 cells is 4.7 µM. Besides, at GLP, the IC50 was 0.015 µM. Consider `[O]=[V]([O-])([O-])[O-]` [VANADATE], for which the “residual viral load” value with Ebola virus was 212 pfu/ml. Consider `O=C1O[C@H]([C@@H](O)CO)C(O)=C1O` [VITAMIN C], for which, in series [1], the LD50 was 11,900 mg/kg. In addition, the “residual viral load” value in the series on Ebola virus was determined as 50000 pfu/ml. On TNF ALPHA, the ED50 is 29 to 60 mg/kg. As for `NC(=O)c1ncn([C@@H]2O[C@H](CO)[C@@H](O)[C@H]2O)n1` [ribovirin], the “Molarity at last dilution” value in the series with Ebolavirus Sudan Gulu was found to be 25 µM.

Turning to `NC(CCSCCCCC(=O)O)C(=O)O` (stereo not drawn) [s-carboxybutyl DL homocysteine], the LD50 in series [1] is 500 mg/kg.

For the compound epigallocatechin-3 gallate [EGCG], in the series on Ebola virus, the “residual viral load” value is 106 pfu/ml. For the same compound, in the series on folate, the IC50 is 34.8 µM.
